Among the data in PubChem BioAssay (NCI) are TGI and GI50 values, retold here.

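Method: 48-hour compound exposure of cells in 96-well plates, five concentrations, linear interpolation of endpoints. GI50 = concentration required for 50% inhibition of growth. TGI denotes the concentration required for complete inhibition of growth.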 Some results are limits rather than exact numbers.

Among the test systems are COLO 205 colon; DMS 114 small cell lung; HL-60(TB) leukemia; IGROV1 ovarian; K-562 leukemia; LXFL 529 NSCLC; NCI-H23 lung; SK-MEL-5 melanoma; EKVX NSCLC; HS 578T breast.
Holding throughout (experiment): inhibition of tumour cell growth, NCI panel, 48 h

`COC(=O)c1nn(C(=N)c2ccc(Cl)cc2)c2c1CCC2`: the TGI in the experiment with COLO 205 colon, with DMS 114 small cell lung, in the experiment on HL-60(TB) leukemia, in the experiment with IGROV1 ovarian, in the experiment on K-562 leukemia and in the experiment with LXFL 529 NSCLC was more than 100 µM each time. Besides, the TGI with NCI-H23 lung and with SK-MEL-5 melanoma was more than 100 µM in each case.

With `CC(=O)[CH-]C(C)=O.CC(=O)[CH-]C(C)=O.CC[O-].CC[O-].[Ti+4]`, the GI50 in the experiment on COLO 205 colon, in the experiment with DMS 114 small cell lung, in the experiment with HL-60(TB) leukemia, in the experiment on IGROV1 ovarian, with K-562 leukemia and with LXFL 529 NSCLC was more than 100 µM in each case. Also, the GI50 in the experiment on SK-MEL-5 melanoma is more than 100 µM. For the same compound, the TGI with COLO 205 colon, with DMS 114 small cell lung, with HL-60(TB) leukemia, with IGROV1 ovarian, in the experiment with K-562 leukemia and with LXFL 529 NSCLC was more than 100 µM throughout. The same compound displayed a TGI with SK-MEL-5 melanoma of more than 100 µM.

On to `CN(C)C(=O)Oc1c(-c2ccccc2)c(=O)n2c3ccccc3n3c(=O)n(C)c(=O)c1c23`, for which the TGI in the experiment on COLO 205 colon, in the experiment with DMS 114 small cell lung, in the experiment on EKVX NSCLC, with IGROV1 ovarian, in the experiment with LXFL 529 NSCLC and in the experiment with NCI-H23 lung was more than 100 µM each time. In the experiment on SK-MEL-5 melanoma, the TGI is more than 100 µM.

Regarding `CN(C)CCCn1c(-c2nonc2N)nc2cnccc21`, the GI50 in the experiment with COLO 205 colon was more than 25 µM; in the experiment on EKVX NSCLC it was more than 25 µM; in the experiment on HL-60(TB) leukemia, more than 25 µM; with HS 578T breast it was 19.1 µM; in the experiment with IGROV1 ovarian, more than 25 µM; in the experiment on K-562 leukemia it was more than 25 µM. Besides, the GI50 in the experiment with NCI-H23 lung and with SK-MEL-5 melanoma was more than 25 µM each time. The TGI in the experiment with COLO 205 colon, with EKVX NSCLC, in the experiment on HL-60(TB) leukemia, with HS 578T breast, in the experiment with IGROV1 ovarian and in the experiment with K-562 leukemia was more than 25 µM throughout. The TGI in the experiment on NCI-H23 lung and with SK-MEL-5 melanoma was more than 25 µM each time.

Take `N.N.O=P([O-])([O-])C1(P(=O)([O-])[O-])CCCCCN1.[Pt+2]`: the GI50 with COLO 205 colon, with HL-60(TB) leukemia, in the experiment on IGROV1 ovarian, in the experiment with K-562 leukemia, in the experiment with LXFL 529 NSCLC and in the experiment on NCI-H23 lung was more than 100 µM each time. Also, in the experiment with SK-MEL-5 melanoma, the GI50 was more than 100 µM. Also, the TGI in the experiment on COLO 205 colon, with HL-60(TB) leukemia, in the experiment with IGROV1 ovarian, in the experiment with K-562 leukemia, with LXFL 529 NSCLC and with NCI-H23 lung was more than 100 µM throughout. In the experiment with SK-MEL-5 melanoma, this compound showed a TGI of more than 100 µM.

Turning to `Cc1cc(C(=O)c2ccccc2)c(C)c2c1[nH]c1ccc(Cl)cc12`, the GI50 in the experiment on COLO 205 colon is 0.102 µM; in the experiment with EKVX NSCLC, 0.126 µM; in the experiment with HL-60(TB) leukemia, 0.0398 µM; with HS 578T breast it was 0.0501 µM; in the experiment with IGROV1 ovarian, 0.0657 µM; with K-562 leukemia, 0.0348 µM. Also, the results for the GI50 in the experiment on NCI-H23 lung and with SK-MEL-5 melanoma were 0.101 µM and 0.068 µM, respectively. Besides, the TGI is 1.36 µM in the experiment on COLO 205 colon; more than 100 µM in the experiment with EKVX NSCLC; 1.78 µM in the experiment on HL-60(TB) leukemia; 27.8 µM in the experiment on HS 578T breast; 15.7 µM in the experiment with IGROV1 ovarian; more than 100 µM in the experiment with K-562 leukemia. Further, the TGI in the experiment with NCI-H23 lung is more than 47 µM; in the experiment on SK-MEL-5 melanoma, 1.19 µM.

Turning to `Cc1ccc([C@]2(C)CC[C@H](C)/C2=C\Br)c(O)c1`, the GI50 in the experiment with COLO 205 colon was 2.49 µM; in the experiment on EKVX NSCLC it was 5.74 µM; with HL-60(TB) leukemia it was 3.47 µM; in the experiment on HS 578T breast, 2.95 µM; in the experiment on IGROV1 ovarian, 3.07 µM; in the experiment on K-562 leukemia it was 3.3 µM. Also, the results for the GI50 in the experiment with NCI-H23 lung and in the experiment with SK-MEL-5 melanoma were 11.4 µM and 3.88 µM, respectively. Besides, the TGI in the experiment on COLO 205 colon worked out at 6.14 µM; with EKVX NSCLC it was 17.7 µM; in the experiment on HL-60(TB) leukemia it was 12.6 µM; in the experiment on HS 578T breast, 15.7 µM; in the experiment on IGROV1 ovarian, 12.4 µM; in the experiment on K-562 leukemia, 11.1 µM. In addition, the TGI stood at 24.9 µM with NCI-H23 lung and 15.5 µM in the experiment with SK-MEL-5 melanoma.

Consider `Oc1ccc(N=Nc2ccccn2)c(O)c1`, for which the GI50 in the experiment with COLO 205 colon was 0.732 µM; in the experiment on EKVX NSCLC, 0.407 µM; in the experiment with HL-60(TB) leukemia, 0.412 µM; in the experiment on HS 578T breast, 59.6 µM; in the experiment with IGROV1 ovarian it was 0.595 µM; with K-562 leukemia, 0.582 µM. For the same compound, the GI50 in the experiment with NCI-H23 lung was 2.66 µM; with SK-MEL-5 melanoma it was 2.1 µM. The TGI is more than 100 µM in the experiment with COLO 205 colon; more than 100 µM in the experiment on EKVX NSCLC; 8.75 µM in the experiment with HL-60(TB) leukemia; more than 100 µM in the experiment on HS 578T breast; more than 100 µM in the experiment with IGROV1 ovarian; more than 100 µM in the experiment on K-562 leukemia. The TGI is more than 100 µM in the experiment on NCI-H23 lung and 24.2 µM in the experiment with SK-MEL-5 melanoma.

With `CC1=NN(c2nc(N)nc(/C=C\c3ccc([N+](=O)[O-])s3)n2)C(C)(C)C1`, the GI50 was more than 100 µM in the experiment with COLO 205 colon; more than 100 µM with EKVX NSCLC; more than 100 µM in the experiment on HL-60(TB) leukemia; more than 100 µM in the experiment with HS 578T breast; more than 100 µM in the experiment on IGROV1 ovarian; 40.9 µM in the experiment on K-562 leukemia. For the same compound, the GI50 with NCI-H23 lung is more than 100 µM; in the experiment with SK-MEL-5 melanoma it was 40.9 µM. Further, the TGI in the experiment with COLO 205 colon, with EKVX NSCLC, in the experiment with HL-60(TB) leukemia, in the experiment with HS 578T breast, in the experiment with IGROV1 ovarian and in the experiment on K-562 leukemia was more than 100 µM in each case. In addition, the TGI with NCI-H23 lung and with SK-MEL-5 melanoma was more than 100 µM each time.

Consider `Oc1ccc(Cc2cc(Cl)cc(Cl)c2O)cc1Cl`, for which the TGI in the experiment with COLO 205 colon is 35 µM; with EKVX NSCLC, 40.2 µM; with HL-60(TB) leukemia it was 3.36 µM; in the experiment with HS 578T breast, 37.2 µM; in the experiment on IGROV1 ovarian, 34.1 µM; with K-562 leukemia, 37.6 µM. The TGI in the experiment on NCI-H23 lung was determined as 32.3 µM; in the experiment with SK-MEL-5 melanoma, 32.1 µM.
